From patent US20250262198A1, “METHOD FOR TREATING MULTIPLE SCLEROSIS” (BEIJING INNOCARE PHARMA TECH CO., LTD., priority 2022, published 2025)

Assays:
[1] = test system: patients with relapsing-remitting multiple sclerosis (RRMS); assay: Randomized, double-blind, placebo-controlled phase 2 study of orelabrutinib in RRMS patients (Core part); format: in vivo, human; conditions: for percent reduction of cumulative number of new Gd+T1 brain lesions relative to placebo: ITT population; for Adjusted mean cumulative number of new Gd+T1 lesions from W 4 to W 24 / Adjusted mean cumulative number of new Gd+T1 lesions at Week 12 / % Reduction of cumulative number of new Gd+T1 lesions from Week 4 to Week 24 vs placebo/50 mg QD switch arm / % Reduction of cumulative number of new Gd+T1 brain lesions vs placebo / Annualized relapse rate (ARR): PHS population; for Adjusted mean cumulative number of new Gd+T1 lesions at Week 12: placebo 4.34
Experimental: This is a randomized, double-blind, placebo-controlled, phase 2 study of orelabrutinib in patients with relapsing-remitting multiple sclerosis (RRMS) that consists of 2 parts: a Core part and an Open-label Extension (OLE) part. The Core part is completed, and the OLE part is on-going.
The completed Core part consisted of a 4-week screening period and 24-week treatment period. Patients with RRMS were randomly assigned to 1 of 4 treatment groups in a 1:1:1:1 ratio: placebo, orelabrutinib 50 mg once daily (QD), orelabrutinib 50 mg twice daily (BID), or orelabrutinib 80 mg QD. At Week 13, patients in the placebo cohort were switched to orelabrutinib 50 mg QD.
Patients with RRMS were randomly assigned to 1 of 4 treatment groups: placebo, orelabrutinib (50 mg, once daily [QD]), orelabrutinib (80 mg QD) and orelabrutinib (50 mg, twice daily [BID]) at a 1:1:1:1 ratio. • Cohort 1: Placebo (Week 1-12)/orelabrutinib 50 mg QD (Week 13-24) • Cohort 2: Orelabrutinib 50 mg QD (Week 1-24) • Cohort 3: Orelabrutinib 80 mg QD (Week 1-24) • Cohort 4: Orelabrutinib 50 mg BID (Week 1-24)
At week 12 of the treatment period, subjects in Cohort 1 were switched to orelabrutinib at a starting daily dose of 50 mg. A separate open-label extension (OLE) study was developed to allow continued dosing, provided that safety and tolerability were acceptable.
Placebo or orelabrutinib was orally administered daily starting on Day 1 of the treatment period. Subjects returned to study site on Day 8 and every 4 weeks starting from Day 1 for trial visits and were assessed for safety and efficacy.
• Intent-to treat (ITT) population. 158 patients randomized: 40 in placebo, 37 in 50 mg QD cohort, 41 in 50 mg BID cohort, and 40 in 80 mg QD cohort. • 3 force majeure events during the study caused missing MRI data at Week 4, 8, or 12 timepoints: Ukraine war & crisis, COVID-19 pandemic outbreak, and FDA's partial clinical hold. • Post-hoc analysis set (PHS) population. 115 patients remaining after excluding patients who missed any one of the 3 MRI data points within first 12 weeks: 27 in placebo, 30 in 50 mg QD, 29 in 50 mg BID, and 29 in 80 mg QD. • 132 patients completed 12 weeks of treatment and 127 patients completed 24 weeks of treatment.
(PHS Population, N=115) The adjusted mean cumulative number, percent reduction (orelabrutinib vs placebo) associated with p-value are estimated from a Poisson regression model with a Pearson scale parameter with a log link function and offset by log number of scans as of Week 12. Baseline number of Gd+T1 brain lesions is included in the model as a continuous covariate.
The adjusted mean cumulative numbers are estimated from Poisson regression models with a Pearson scale parameter with a log link function and offset by log number of scans as of that visit. Baseline number of Gd+T1 brain lesions is included in the model as a continuous covariate.

[2] = test system: MOG35-55-induced EAE mouse model; assay: MOG35-55-induced EAE mouse model of multiple sclerosis, oral orelabrutinib; format: in vivo, C57BL/6 mouse
Experimental: Multiple sclerosis (MS) is a chronic neuroinflammatory demyelinating disorder of the central nervous system (CNS). EAE (Experimental Autoimmune Encephalomyelitis) is the most common animal model of human MS as it is especially useful to investigate neuroinflammatory pathways. The synthesized peptide MOG35-55-induced EA E mouse model was used to evaluate the therapeutic potential of orelabrutinib. 100 μL emulsion consisted of 0.75 mg/ml MOG35-55 and 4 mg/mL CFA were injected subcutaneously into two different sites on each hind flank of each C57BL/6 mouse. 300 ng of pertussis toxin in 100 μL of PBS were injected intraperitoneally at the day of immunization and two days later. Mice were randomized into 2 groups as follows: vehicle and orelabrutinib 30 mg/kg/day. Each group had 10 animals. On the day of immunization, animals were dosed QD by PO gavage with either vehicle or test compound for 21 days.

C=CC(=O)N1CCC(c2ccc(C(N)=O)c(-c3ccc(Oc4ccccc4)cc3)n2)CC1 [orelabrutinib, 2-(4-phenoxyphenyl)-6-[1-(prop-2-enoyl)piperidin-4-yl]pyridine-3-carboxamide]
percent reduction of cumulative number of new Gd+T1 brain lesions relative to placebo ([1]; Week 12, 50 mg BID): 78.8%
percent reduction of cumulative number of new Gd+T1 brain lesions relative to placebo ([1]; Week 12, 50 mg QD): 73.3%
percent reduction of cumulative number of new Gd+T1 brain lesions relative to placebo ([1]; Week 12, 80 mg QD): 80.5%
Adjusted mean cumulative number of new Gd+T1 lesions from W 4 to W 24 ([1]; 50 mg BID (N=29)): 1.08
Adjusted mean cumulative number of new Gd+T1 lesions at Week 12 ([1]; 50 mg BID (N=29)): 0.82
% Reduction of cumulative number of new Gd+T1 lesions from Week 4 to Week 24 vs placebo/50 mg QD switch arm ([1]; 50 mg BID, P 0.0114): 83.3%
Adjusted mean cumulative number of new Gd+T1 lesions from W 4 to W 24 ([1]; 50 mg QD (N=30)): 2.10
Adjusted mean cumulative number of new Gd+T1 lesions at Week 12 ([1]; 50 mg QD (N=30)): 1.14
% Reduction of cumulative number of new Gd+T1 lesions from Week 4 to Week 24 vs placebo/50 mg QD switch arm ([1]; 50 mg QD, P 0.0958): 67.4%
Adjusted mean cumulative number of new Gd+T1 lesions from W 4 to W 24 ([1]; 80 mg QD (N=29)): 0.50
Adjusted mean cumulative number of new Gd+T1 lesions at Week 12 ([1]; 80 mg QD (N=29)): 0.42
% Reduction of cumulative number of new Gd+T1 lesions from Week 4 to Week 24 vs placebo/50 mg QD switch arm ([1]; 80 mg QD, P 0.0037): 92.3%
% Reduction of cumulative number of new Gd+T1 brain lesions vs placebo ([1]; Week 12, 50 mg BID (N=29), P 0.0073): 81.0%
% Reduction of cumulative number of new Gd+T1 brain lesions vs placebo ([1]; Week 12, 50 mg QD (N=30), P 0.0278): 73.8%
% Reduction of cumulative number of new Gd+T1 brain lesions vs placebo ([1]; Week 12, 80 mg QD (N=29), P 0.0018): 90.4%
Annualized relapse rate (ARR) ([1]; Week 24, 50 mg BID): 0.12
Annualized relapse rate (ARR) ([1]; Week 24, 50 mg QD): 0.05
Annualized relapse rate (ARR) ([1]; Week 24, 80 mg QD): 0.06
Annualized relapse rate (ARR) ([1]; Week 24, placebo/50 mg QD switch arm (placebo Week 1-12, orelabrutinib 50 mg QD Week 13-24)): 0.14
Adjusted mean cumulative number of new Gd+T1 lesions from W 4 to W 24 ([1]; switch arm: placebo Week 1-12 / orelabrutinib 50 mg QD Week 13-24 (N=27)): 6.45
Annualized relapse rate (ARR) compared to the placebo group ([1]; all orelabrutinib cohorts, Week 12, sustained through Week 24): reduced
control of new T1 lesions ([1]; all orelabrutinib cohorts, after 4 weeks of treatment, effect sustained up to 24 weeks): Control of new T1 lesions was achieved
average clinical score (EAE) ([2]; 30 mg/kg/day PO QD, day 15 post-immunization, vehicle 2.0): 0.9
average clinical score (EAE) ([2]; 30 mg/kg/day PO QD, day 21, p<0.05, vehicle 1.5): 0.6
body weight loss associated with EAE ([2]; 30 mg/kg/day PO QD, vs vehicle): reduced weight loss
reduction of EAE score ([2]; 30 mg/kg/day oral): 50%
EAE severity ([2]; 30 mg/kg/day oral, vs vehicle): markedly ameliorated EAE severity
